Data: patent US20040072907A1, “Antipicornaviral compounds, compositions containing them, and methods for their use” (priority 1997, published 2004)
Where two headings read alike, the source gives them in different places.

Tests used:
[1] = target: T1, Recombinant Rhinovirus 3C protease serotype 14 (Human rhinovirus 14, UniProt P03303); assay: biochemical; conditions: RVP serotype-14, progress curves, enzyme start experiments
T1 construct: Recombinant Rhinovirus 3C proteases from serotypes 14, 16, and 2; made in house
T1 sequence (P03303 1538-1719): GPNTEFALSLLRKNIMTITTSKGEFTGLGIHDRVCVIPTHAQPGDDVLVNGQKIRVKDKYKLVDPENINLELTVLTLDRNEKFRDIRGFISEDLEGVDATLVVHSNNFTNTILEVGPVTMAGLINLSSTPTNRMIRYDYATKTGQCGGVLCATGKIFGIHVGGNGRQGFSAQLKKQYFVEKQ
Protocol: Stock solutions (50 mM, in DMSO) of various compounds were prepared; dilutions were in the same solvent. […] Assays contained 2% DMSO, 50 mM tris pH 7.6, 1 mM EDTA, a compound at the indicated concentrations, approximately 1 μM substrate, and 50-100 nM protease. […] The kobs/I values were obtained from reactions initiated by addition of enzyme rather than substrate. RVP activity is measured in the fluorescence resonance energy transfer assay. […] In the uncleavaed peptide, the EDANS fluorescence was quenched by the proximal DABCYL moiety. When the peptide was cleaved, the quenching was relieved, and activity was measured as an increase in fluorescence signal.
The data in the column designated kobs/I was measured from progress curves enzyme start experiments.

[2] = Cytotoxicity in mock-infected HI-HeLa cells (XTT, antirhinoviral assay); type: cell-based; conditions: human; mock-infected HI-HeLa cells; line for HRV serotype-14
Protocol: (§1) In the Cell Protection Assay, the ability of compounds to protect cells against HRV infection was measured by the XTT dye reduction method. This method is described in Weislow, O. S., Kiser, R., Fine, D. L., Bader, J., Shoemaker, R. H., Boyd, M. R., J. Natl. Cancer Inst. 1989, 81, 577-586, the disclosure of which is incorporated herein by reference.
(§2) Infected or mock-infected cells were resuspended at 8×10^5 cells per mL and incubated with appropriate concentrations of compounds of formula I. Two days later, XTT/PMS was added to test plates, and the amount of formazan produced was quantified spectrophotometrically at 450/650 nm. […] The therapeutic index (TI) was calculated by dividing the CC50 by the EC50.
(§3) HRV stocks were propagated, and viral assays were performed in HI-HeLa cells (ATCC). Cells were grown in Minimal Essential Medium, available from Life Technologies, with 10% fetal bovine serum.

HRV serotype-14 = assay: Antirhinoviral HI-HeLa cell culture assay (XTT cell protection), HRV-14; type: cell-based, human rhinovirus
Protocol: as §1, §2
(§4) All strains of human rhinovirus (HRV) for use in this assay were purchased from American Type Culture Collection (ATCC) except for HRV serotype-14, which was produced from the infectious cDNA clone constructed and supplied to Applicants by Dr. Robert Rueckert at the Institute for Molecular Virology, University of Wisconsin, Madison, Wis. HRV stocks were propagated, and viral assays were performed in HI-HeLa cells (ATCC). Cells were grown in Minimal Essential Medium, available from Life Technologies, with 10% fetal bovine serum.
(§5) The compounds were tested against control compounds WIN 51711, WIN 52084, and WIN 54954, all obtained from Sterling-Winthrop Pharmaceuticals, and control compound Pirodavir, obtained from Janssen Pharmaceuticals. Antiviral data obtained for the test compounds are shown in Table 2 where all data are for HRV serotype-14 unless otherwise noted in parentheses.

HI-HeLa cells [3] = assay: Cytotoxicity in mock-infected HI-HeLa cells (XTT, antirhinoviral assay); type: cell-based; conditions: mock-infected HI-HeLa cells, read-out: CC50
Protocol: as §1, §2, §3

HI-HeLa cells [4] = assay: Cytotoxicity in uninfected HI-HeLa cells (XTT, anticoxsackieviral assay); type: cell-based; conditions: one day
Protocol: (§6) The Coxsackie strain A-21 (CVA-21) was purchased from American Type Culture Collection (ATCC). Virus stocks were propagated, and antiviral assays were performed in HI-HeLa cells (ATCC). Cells were grown in Minimal Essential Medium with 10% fetal bovine serum.
(§7) The ability of compounds to protect cells against CVA-21 infection was measured by the XTT dye reduction method. This method is described in Weislow, O. S., Kiser, R., Fine, D. L., Bader, J., Shoemaker, R. H., Boyd, M. R., J. Natl. Cancer Inst. 1989, 81, 577-586, the disclosure of which is incorporated herein by reference. HI-HeLa cells were infected with CVA-21 at a multiplicity of infection (m.o.i.) of 0.05 (CVA-21) or mock-infected with medium only. Infected or uninfected cells were resuspended at 4×10^4 cells per mL and incubated with appropriate concentrations of drug. One day later, XTT/PMS was added to test plates, and the amount of formazan produced was quantified spectrophotometrically at 450/650 nm. […] The therapeutic index (TI) was calculated by dividing the CC50 by the EC50.

HRV serotype 2 = assay: Antirhinoviral HI-HeLa cell culture assay (XTT cell protection), HRV-2; type: cell-based, human rhinovirus; conditions: HRV serotype 2, HI-HeLa cells
Protocol: as §1, §2, §4, §5

HRV serotype 1A = assay: Antirhinoviral HI-HeLa cell culture assay (XTT cell protection), HRV-1A; type: cell-based, human rhinovirus; conditions: HI-HeLa cells
Protocol: as §1, §2, §4, §5

HRV serotype 10 = assay: Antirhinoviral HI-HeLa cell culture assay (XTT cell protection), HRV-10; type: cell-based, human rhinovirus; conditions: HRV serotype 10, HI-HeLa cells
Protocol: as §1, §2, §4, §5

HRV serotype 89 = assay: Antirhinoviral HI-HeLa cell culture assay (XTT cell protection), HRV-89; type: cell-based, human rhinovirus; conditions: HRV serotype 89, HI-HeLa cells
Protocol: as §1, §2, §4, §5

HRV serotype 16 = assay: Antirhinoviral HI-HeLa cell culture assay (XTT cell protection), HRV-16; type: cell-based, human rhinovirus; conditions: HRV serotype 16, HI-HeLa cells
Protocol: as §1, §2, §4, §5

HRV serotype 39 = assay: Antirhinoviral HI-HeLa cell culture assay (XTT cell protection), HRV-39; type: cell-based, human rhinovirus; conditions: HRV serotype 39, HI-HeLa cells
Protocol: as §1, §2, §4, §5

[5] = system: Coxsackie strain A-21 (CVA-21); assay: Anticoxsackieviral HI-HeLa cell culture assay (XTT cell protection); type: cell-based; conditions: CVA-21, HI-HeLa cells, m.o.i. 0.05, one day
Protocol: as §6
as §7, with “HI-HeLa cells were infected with CVA-21 at a multiplicity of infection (m.o.i.) of 0.05 (CVA-21) or mock-infected with medium only.” left out
The compounds were tested against control compound WIN 54954, obtained from Sterling-Winthrop Pharmaceuticals, and control compound Pirodavir, obtained from Janssen Pharmaceuticals.

[6] = Cytotoxicity in uninfected HI-HeLa cells (XTT, anticoxsackieviral assay); type: cell-based; conditions: human, one day
Protocol: as §6, §7

[7] = HRV serotype-14, HI-HeLa cells, m.o.i. 0.13, two days, XTT, read-out: EC50

| Compound | CC50 (HI-HeLa cells [3]; line for HRV serotype 2) [nM] | CC50 (HI-HeLa cells [3]; line for HRV serotype 10) [nM] | CC50 (HI-HeLa cells [3]; line for HRV serotype 39) [nM] | CC50 (HI-HeLa cells [3]; line for HRV serotype 89) [nM] | EC50 (HRV serotype 2) [nM] | CC50 (HI-HeLa cells [3]; line for HRV serotype 1A) [nM] | CC50 (HI-HeLa cells [3]; line for HRV serotype-14) [nM] | EC50 (HRV serotype-14; [7]) [nM] | EC50 (HRV serotype 1A) [nM] | EC50 (HRV serotype 10) [nM] | EC50 (HRV serotype 89) [nM] | EC50 (HRV serotype 16) [nM] | further results |
| --- | --- | --- | --- | --- | --- | --- | --- | --- | --- | --- | --- | --- | --- |
| CC(C)CC(NC(=O)SCc1ccccc1)C(=O)CC(Cc1ccccc1)C(=O)NC(C=CC(=O)N1CCc2ccccc21)CCC(N)=O [Compound 3, (2,3-Dihydroindole)-3-(BnSCO-L-LeuΨ[COCH2]-L-Phe-L-Gln)-E-Propenamide] | – | – | – | – | – | – | – | – | – | – | – | – | kinact/KI ([1]; read-out: kobs/I): 29200 M⁻¹ s⁻¹; CC50 at 2 days [2]: 50100 nM; EC50 (HRV serotype-14; Human rhinovirus sp., 48 h): 1900 nM |
| CCOC(=O)/C=C/C(CCC(N)=O)NC(=O)C(CC(=O)C(NC(=O)SC1CCCC1)C(C)C)Cc1ccccc1 [Compound 7, Ethyl-3-(CyPentylSCO-L-ValΨ[COCH2]-L-Phe-L-Gln)-E-Propenoate] | > 10000 | > 10000 | > 10000 | > 10000 | – | – | – | – | – | – | – | – | CC50 (HI-HeLa cells [4]): > 10000 nM |
| CCOC(=O)/C=C/C(CCC(N)=O)NC(=O)C(CC(=O)C(CC(C)C)NC1CCCC1)Cc1ccc(F)cc1 (stereo not drawn) [Compound 19] | > 3000 | > 3000 | – | – | 710 | > 3000 | > 3000 | 280 | 600 | 1600 | – | – | kobs/I [1]: 67,200 M^−1sec^−1 |
| CCOC(=O)/C=C/C(CCC(N)=O)NC(=O)C(CC(=O)C(NC(=O)OC1CCCC1)C(C)C)Cc1ccc(C)cc1 (stereo not drawn) [Compound 20] | > 3000 | > 3000 | > 3000 | > 3000 | 560 | > 3000 | > 3000 | 42 | 530 | – | 470 | 150 | CC50 (HI-HeLa cells [3]; line for HRV serotype 16): > 3000 nM; EC50 (HRV serotype 39): 1200 nM |
| CCOC(=O)/C=C/C(CCC(N)=O)NC(=O)C(CC(=O)C(CC(C)C)NC(=O)SC1CCCC1)Cc1ccc(C)cc1 [Compound 21, Ethyl-3-(CyPentylSCO-L-LeuΨ[COCH2]-L-(p-CH3)Phe-L-Gln)-E-Propenoate] | > 10000 | > 10000 | – | – | 1000 | > 10000 | > 10000 | – | 560 | 1400 | – | – | – |
| CCOC(=O)/C=C/[C@H](CCC(N)=O)NC(=O)[C@@H](CC(=O)[C@@H](NC(=O)OC1CCCC1)C(C)C)Cc1ccc(F)cc1 [Compound 25, Ethyl-3-(CyPentylOCO-L-ValΨ[COCH2]-L-(p-F)Phe-L-Gln)-E-Propenoate] | > 3000 | > 3000 | > 3000 | > 3000 | – | > 3000 | > 3000 | 140 | 900 | 1700 | 320 | 710 | CC50 (HI-HeLa cells [3]; line for HRV serotype 16): > 3000 nM; EC50 (HRV serotype 39): 560 nM |
| CCOC(=O)c1ccc(OCCC2CCN(c3ccc(C)nn3)CC2)cc1 [Pirodavir, reference compound] | – | – | – | – | – | – | – | – | – | – | – | – | EC50 ([5]; 24 h): > 100000 nM; CC50 at 2 days [2]: > 10000 nM; EC50 (HRV serotype-14; Human rhinovirus sp., 48 h, HRV serotype-14, HI-HeLa cells, m.o.i. 0.13, two days, XTT, read-out: EC50): 30 nM; CC50 at 1 day [6]: > 100000 nM |
| Cc1cc(CCCCCOc2c(Cl)cc(C3=NCCO3)cc2Cl)on1 [WIN 54954, reference compound] | – | – | – | – | – | – | > 63000 | 2130 | – | – | – | – | EC50 [5]: > 100000 nM; CC50 (HI-HeLa cells [4]): > 100000 nM |
| Ethyl-3-(CBZ-L-LeuΨ[COCH2]-D/L-Phe-L-Gln)-E-Propenoate [Compound 1 + 9 (˜1:1)] | – | – | – | – | 2000 | – | – | 1300 | – | 4100 | 5100 | 2800 | – |
